Reference: US4248870A, “Maytansinoids and use” (Takeda Chemical Industries, Ltd., priority 1979, dated 1981)
Converted amounts (≈) assume the structure as drawn.

Tests used:
Tetrahymena pyriformis W = experiment: Antiprotozoal activity, growth inhibition by serial dilution method; type: cell-based; conditions: 28° C., 44 to 48 hours, pH 7.0, serial dilution method
Procedure: Antiprotozoal activity of compound (I) was assayed with Tetrahymena pyriformis W as the test organism and a medium composed of 20 g tryptose-peptone (Difco Co.), 1 g yeast extract, 2 glucose, 1000 ml distilled water, 10 ml 1 M phosphate buffer (pH 7.0) as the assay medium. The microorganism was incubated at 28° C. for 44 to 48 hours and the growth inhibitory activity of compound (I) was assayed by the serial dilution method.

leukemia P-388 = experiment: Therapeutic test in mice, leukemia P-388 transplanted intraperitoneally (life span prolongation); type: in vivo; conditions: intraperitoneally once daily for 9 consecutive days
Procedure: (§1) Therapeutic tests were carried out in mice according to NCI-protocols 1,200 and 1,300, Cancer Chemother, Reports, Part 3, 1972, Vol. 3, No. 2, in which leukemia P-388 and melanoma B-16 tumor cells had been intraperitoneally transplanted, compound (I) being administered intraperitoneally once daily for 9 consecutive days.

melanoma B-16 = experiment: Therapeutic test in mice, melanoma B-16 transplanted intraperitoneally (life span prolongation); type: in vivo; conditions: intraperitoneally once daily for 9 consecutive days
Procedure: as §1

Compound: COc1cc2cc(c1Cl)N(C)C(=O)CC(OC(=O)C1CC1)C1(C)OC1C(C)C1CC(O)(NC(=O)O1)C(OC)C=CC=C(C)C2 (centres unmarked) [Maytansinol 3-cyclopropane carboxylate, Maytansinol 3-cyclopropanecarboxylate]
- MIC (Tetrahymena pyriformis W): 4 µg/mL (≈ 6.32 µM)

Compound: COc1cc2cc(c1Cl)N(C)C(=O)CC(OC(=O)c1ccccc1)C1(C)OC1C(C)C1CC(O)(NC(=O)O1)C(OC)C=CC=C(C)C2 (centres unmarked) [Maytansinol 3-benzoate]
- MIC (Tetrahymena pyriformis W): 4 µg/mL (≈ 5.98 µM)

Compound: COc1cc2cc(c1Cl)N(C)C(=O)CC(OC(=O)c1ccc(Cl)cc1)C1(C)OC1C(C)C1CC(O)(NC(=O)O1)C(OC)C=CC=C(C)C2 (centres unmarked) [Maytansinol 3-(p-chloro)benzoate, Maytansinol 3-p-chlorobenzoate]
- MIC (Tetrahymena pyriformis W): ≥ 4 µg/mL

Compound: COc1cc2cc(c1Cl)N(C)C(=O)CC(OC(=O)c1cccs1)C1(C)OC1C(C)C1CC(O)(NC(=O)O1)C(OC)C=CC=C(C)C2 (centres unmarked) [Maytansinol 3-(2-thiophene)carboxylate]
- MIC (Tetrahymena pyriformis W): ≥ 4 µg/mL

Compound: COc1cc2cc(c1Cl)N(C)C(=O)CC(OC(=O)c1ccccn1)C1(C)OC1C(C)C1CC(O)(NC(=O)O1)C(OC)C=CC=C(C)C2 (stereo not drawn) [Maytansinol 3-α-picolinate, Maytansinol 3-picolinate]
- Antitumor activities P-388 (T/C %) (leukemia P-388; 50 μg/kg): 193%
- Antitumor activities P-388 (T/C %) (leukemia P-388; 100 μg/kg): 185%
- Antitumor activities B-16 (T/C %) (melanoma B-16; 100 μg/kg): 176%
- Antitumor activities B-16 (T/C %) (melanoma B-16; 200 μg/kg): 173%
- MIC (Tetrahymena pyriformis W): ≥ 4 µg/mL

Compound: COc1cc2cc(c1Cl)N(C)C(=O)CC(OC(=O)C1CCCCC1)C1(C)OC1C(C)C1CC(O)(NC(=O)O1)C(OC)C=CC=C(C)C2 (centres unmarked) [Maytansinol 3-cyclohexane carboxylate, Maytansinol 3-cyclohexanecarboxylate]
- Antitumor activities B-16 (T/C %) (melanoma B-16; 25 μg/kg): 193%
- Antitumor activities B-16 (T/C %) (melanoma B-16; 50 μg/kg): 188%
- Antitumor activities B-16 (T/C %) (melanoma B-16; 100 μg/kg): 193%
- MIC (Tetrahymena pyriformis W): < 2 µg/mL

Compound: COc1cc2cc(c1Cl)N(C)C(=O)CC(OC(=O)CCc1ccccc1)C1(C)OC1C(C)C1CC(O)(NC(=O)O1)C(OC)C=CC=C(C)C2 (centres unmarked) [Maytansinol 3-(3-phenyl)propionate, Maytansinol 3-phenylpropionate]
- MIC (Tetrahymena pyriformis W): 2 to 4 µg/mL (≈ 2.87 to 5.74 µM)

Compound: COc1cc2cc(c1Cl)N(C)C(=O)CC(OC(=O)c1ccco1)C1(C)OC1C(C)C1CC(O)(NC(=O)O1)C(OC)C=CC=C(C)C2 (centres unmarked) [Maytansinol 3-(2-furane)carboxylate, Maytansinol 3-(2-furan)carboxylate]
- MIC (Tetrahymena pyriformis W): ≥ 4 µg/mL

Compound: COc1cc2cc(c1Cl)N(C)C(=O)CC(OC(=O)Cc1ccccc1)C1(C)OC1C(C)C1CC(O)(NC(=O)O1)C(OC)C=CC=C(C)C2 (centres unmarked) [Maytansinol 3-phenylacetate]
- Antitumor activities P-388 (T/C %) (leukemia P-388; 12.5 μg/kg): 164%
- Antitumor activities P-388 (T/C %) (leukemia P-388; 25 μg/kg): 185%
- Antitumor activities B-16 (T/C %) (melanoma B-16; 12.5 μg/kg): 207%
- Antitumor activities B-16 (T/C %) (melanoma B-16; 25 μg/kg): 230%
- MIC (Tetrahymena pyriformis W): < 2 µg/mL
